# Values joined by “and” are separate entries in the source; they are usually repeats but may differ in a detail not shown here. Identical values can stand only once. Marks after values point to notes of the source that are not given here.
# Key:
# Format in all cases: in vivo, human
# [1] = system: hypertensive patients; test: Special investigation of combined use of cilnidipine and ARB: changes in systolic and diastolic blood pressure; conditions: for diastolic BP, aft. / systolic BP, aft. / diastolic BP, bef. / systolic BP, bef.: all availability cases; for diastolic BP, bef. use / systolic BP, bef. use / diastolic BP, aft. use / systolic BP, aft. use: only ARB
# Protocol: (§1) A special investigation was conducted in various medical centers, compiled, and analyzed to evaluate the safety and availability of the combined use of cilnidipine and at least one angiotensin II receptor blocker.
# (§2) The subjects of the investigation were hypertensive patients which were adapted to cilnidipine. Combined administration of cilnidipine and ARB was started for the treatment of hypertension in these patients.
# (§3) A prospective continuous investigation method was conducted. Such a method is continuously conducted with the registered cases with the combined administration of cilnidipine (Atelec®) and ARB, until the number of cases reaches the contracted cases for each center.
# (§4) Regarding the administration method of cilnidipine, 5 to 10 mg of cilnidipine was orally administered after breakfast once a day. Meanwhile, the amount may increase or decrease depending on patient's age, symptoms, or the like. When the effect is insufficient, the amount can be increased to 20 mg once a day. The dosing period of cilnidipine was set to 12 weeks in principle.
# (§5) The following items were tracked during the investigation: patient's background (sex), existence or nonexistence of previous therapeutic agents and the content thereof, targeted blood pressure (systolic BP/diastolic BP), the conditions of administration of cilnidipine and ARB, antihypertensives used in combination (those other than cilnidipine or ARB), clinical course (systolic BP/diastolic BP/heart rate), and occurrence of side-effects. As for the availability of the combined administration, in the 12th week after starting the combined administration, the doctor in attendance judged the degree of the blood pressure controls on a three-point scale of “well-controlled”, “nearly well-controlled” and “poorly-controlled”, referring to the changes in the systolic and diastolic BP. As for the safety and availability analysis for each patient background, Fisher's exact probability test or the X^2 test was used. As for the blood pressure and heart rate, the average value and the standard deviation were calculated for the subjects before the combined administration (within 4 weeks before starting the combined administration), and data after starting the combined administration were determined on each observation day, and analysis was conducted by using a paired t-test. The test was conducted as the two-sided test and less than 5% of the risk rate was regarded as significant. Furthermore, side-effects were compiled based on the naming of preferred terms (PT) of MedDRA/J ver 8.0.
# Table 7 and FIG. 2 show the number of cases for which the blood pressure was measured, and the changes in the measured values of systolic BP, diastolic BP, and heart rate were measured at the following time points: before starting the combined administration, 4 weeks, 8 weeks, and 12 weeks after starting the combined administration, and the last measurement, […] administration, n=2919). […] Then, it continued to slowly decrease, and the a stable change was seen up to 12 weeks after the start.
# [2] = system: hypertensive patients; test: Special investigation of combined use of cilnidipine and ARB: occurrence of side-effects (safety analysis); conditions: for side-effect number of cases / side-effect number of examples: cilnidipine and ARB; for side-effect occurence rate (%): combined administration of cilnidipine and ARB
# Protocol: as §1
# The investigation was conducted mainly in the departments of internal medicine/cardiovascular diseases of various medical institutions. The target of the estimated collected cases was about 3000 cases.
# as §2, §3, §4, §5
# The ratios of the cases wherein side-effects occurred were compared and examined between the sexes in the 2920 cases of the safety analysis (Table 5). […] The ratio thereof in a female group was 3.2% and that in a male group was 1.8%. […] The side-effects observed were mainly subjective symptoms such as headache, palpitation, and free-floating dizziness. Meanwhile, the ratio of the cases wherein the side-effects of these subjective symptoms occurred was low, and it is not a serious side-effect caused by the combined administration.
# [3] = system: hypertensive patients; test: Special investigation of combined use of cilnidipine and ARB: degree of the blood pressure controls judged by the doctor (efficacy ratio); set-up: concentration or dose not given beside the values
# Protocol: as §1, §2, §3, §4, §5
# As the index of availability, in the 12th week after starting the combined administration, the doctor in attendance judged the degree of the blood pressure controls on a three-point scale of “well-controlled”, “nearly well-controlled” and “poorly-controlled”.
# (1) Among the 2919 cases in the availability analysis, 42 cases in which the degree of the blood pressure controls was not described, and 168 cases which could not be judged, were excluded. In the other 2709 cases, the ratio of number of cases judged as “nearly well-controlled” or higher was calculated as the efficacy ratio. Accordingly, the efficacy ratio of the subject cases in the availability analysis was 84.8% (2298 cases/2709 cases).
# [4] = cilnidipine + ARB, 4 wks after use
# [5] = cilnidipine + ARB, 8 wks after use
# [6] = cilnidipine + ARB, 12 wks after use
# [7] = cilnidipine + ARB, before combined use, 2,586 cases
# [8] = cilnidipine + ARB, last measurement (222.43 days in average)
# [9] = value before combined use of the 840 cases measured at 8 wks
# [10] = value before combined use of the 950 cases measured at 12 wks
# [11] = value before combined use of the 1,131 cases measured at 4 wks
# [12] = value before combined use of the 2,565 cases with last measurement
# [13] = then cilnidipine added, value before combined use of the 338 cases measured at 8 wks
# [14] = then cilnidipine added, value before combined use of the 360 cases measured at 12 wks
# [15] = then cilnidipine added, value before combined use of the 453 cases measured at 4 wks
# [16] = then cilnidipine added, value before combined use of the 1,047 cases with last measurement
# [17] = then cilnidipine singularly added, 4 wks after the use
# [18] = then cilnidipine singularly added, 8 wks after the use
# [19] = then cilnidipine singularly added, 12 wks after the use
# [20] = then cilnidipine singularly added, before combined use, 1,055 cases
smiles,measurement,setting,value
"COCCOC(=O)C1=C(C)NC(C)=C(C(=O)OC/C=C/c2ccccc2)C1c1cccc([N+](=O)[O-])c1 (racemic) [cilnidipine, 2-methoxyethyl-3-phenyl-2(E)-propenyl(±)-1,4-dihydro-2,6-dimethyl-4-(3-nitrophenyl)-3,5-pyridinedicarboxylate]","diastolic BP, aft.",[1]; [4],80.44 ± 11.30 mmHg
same,"systolic BP, aft.",[1]; [4],144.31 ± 16.64 mmHg
same,"diastolic BP, aft.",[1]; [5],78.69 ± 10.99 mmHg
same,"systolic BP, aft.",[1]; [5],142.28 ± 17.41 mmHg
same,"diastolic BP, aft.",[1]; [6],78.64 ± 11.39 mmHg
same,"systolic BP, aft.",[1]; [6],140.57 ± 16.45 mmHg
same,"diastolic BP, bef.",[1]; [7],89.49 ± 13.09 mmHg
same,"systolic BP, bef.",[1]; [7],162.21 ± 19.21 mmHg
same,"diastolic BP, aft.",[1]; [8],78.78 ± 10.68 mmHg
same,"systolic BP, aft.",[1]; [8],139.67 ± 16.47 mmHg
same,"diastolic BP, bef.",[1]; [9],88.22 ± 13.53 mmHg
same,"systolic BP, bef.",[1]; [9],161.13 ± 18.47 mmHg
same,"diastolic BP, bef.",[1]; [10],88.56 ± 13.48 mmHg
same,"systolic BP, bef.",[1]; [10],161.63 ± 18.58 mmHg
same,"diastolic BP, bef.",[1]; [11],88.80 ± 12.94 mmHg
same,"systolic BP, bef.",[1]; [11],161.96 ± 19.46 mmHg
same,"diastolic BP, bef.",[1]; [12],89.51 ± 13.09 mmHg
same,"systolic BP, bef.",[1]; [12],162.19 ± 19.11 mmHg
same,"diastolic BP, bef. use",[1]; [13],90.63 ± 13.13 mmHg
same,"systolic BP, bef. use",[1]; [13],162.45 ± 16.04 mmHg
same,"diastolic BP, bef. use",[1]; [14],90.26 ± 12.40 mmHg
same,"systolic BP, bef. use",[1]; [14],161.92 ± 15.66 mmHg
same,"diastolic BP, bef. use",[1]; [15],90.72 ± 12.00 mmHg
same,"systolic BP, bef. use",[1]; [15],163.61 ± 15.91 mmHg
same,"diastolic BP, bef. use",[1]; [16],91.31 ± 11.47 mmHg
same,"systolic BP, bef. use",[1]; [16],163.11 ± 16.40 mmHg
same,"diastolic BP, aft. use",[1]; [17],81.47 ± 10.51^b mmHg
same,"systolic BP, aft. use",[1]; [17],143.91 ± 15.39^b mmHg
same,"diastolic BP, aft. use",[1]; [18],79.75 ± 10.37^b mmHg
same,"systolic BP, aft. use",[1]; [18],140.97 ± 15.94^b mmHg
same,"diastolic BP, aft. use",[1]; [19],79.71 ± 11.23^b mmHg
same,"systolic BP, aft. use",[1]; [19],140.09 ± 15.37^b mmHg
same,"diastolic BP, bef. use",[1]; [20],91.26 ± 11.48 mmHg
same,"systolic BP, bef. use",[1]; [20],163.09 ± 16.36 mmHg
same,"diastolic BP, aft. use","[1]; then cilnidipine singularly added, last measurement (222.03±143.88 days)",79.68 ± 10.68^b mmHg
same,ratio of the cases wherein side-effects occurred,[2]; cases on ARB alone to which cilnidipine was additionally administered,low
same,side-effect number of cases,"[2]; female group, 1,481 cases",56
same,side-effect number of examples,"[2]; female group, 1,481 cases",47
same,side-effect occurence rate (%),"[2]; female group, 1,481 cases",3.2% and 3.17%
same,side-effect number of cases,"[2]; male group, 1,416 cases",32
same,side-effect number of examples,"[2]; male group, 1,416 cases",26
same,side-effect occurence rate (%),"[2]; male group, 1,416 cases",1.8% and 1.84%
same,side-effect number of cases,"[2]; sex unknown, 23 cases",0
same,side-effect number of examples,"[2]; sex unknown, 23 cases",0
same,side-effect occurence rate (%),"[2]; sex unknown, 23 cases",0%
same,efficacy ratio (cases judged nearly well-controlled or higher),"[3]; all subject cases in the availability analysis, 12th week after starting cilnidipine + ARB, 2298 cases/2709 cases",84.8%
same,efficacy ratio (cases judged nearly well-controlled or higher),"[3]; cases on ARB alone, cilnidipine additionally administered (antihypertensives ARB and cilnidipine only)",86.4%
